{
  "source": "patent US20240245677A1",
  "about": "“SELECTED COMPOUNDS FOR TARGETED DEGRADATION OF BRD9” (C4 THERAPEUTICS, INC., priority 2021, published 2024)",
  "biological_target": "T1, BRD4 (Homo sapiens, UniProt O60885)",
  "T1 construct": "endogenously expressing BRD4 with HiBiT fusion tag via CRISPR; endogenous in cells; host or cells: HEK293T.92 (made in-house from 293T, ATCC CRL-3216)",
  "assay": "BRD4 HiBiT degradation assay in HEK293T.92 cells",
  "assay_type": "cell-based",
  "text": "This assay evaluates the degradation of Bromodomain Containing 4 (BRD4) induced by treatment with Compound 1 as measured by luminescence using Nano-Glo® HiBiT Lytic Assay System in HEK293 cells CRISPR-edited to endogenously express HiBiT tagged BRD4.\nNano-Glo® HiBiT Lytic Assay System was purchased from Promega (Catalog No. N3050, Madison, WI, USA). 293T cells were obtained from ATCC (Catalog No. CRL-3216, Manassas, VA, USA), and maintained in Dulbecco's modified Eagle medium (DMEM) (Catalog No. 12430112, ThermoFisher Scientific, Waltham, MA, USA) supplemented with 10% fetal bovine serum (FBS) (Catalog No. 16000-044, Gibco, Grand Island, NY, USA) at 37° C. in an atmosphere of 5% CO2 in air. The HiBiT polypeptide tag was introduced into the N-terminus of the endogenous BRD4 locus by CRISPR-Cas9 to produce the modified HEK293T.92 cell line. The HiBiT polypeptide allows reconstitution of NanoBiT enzyme following cell lysis and addition of the complementing LgBiT polypeptide that activates substrate to produce a luminescent signal that is directly proportional to the amount of HiBiT-tagged BRD4.\nThe HEK293T.92 cells were routinely sub-cultured to maintain cell density between 30-80% confluence, not to exceed 20 passages. Cells were washed with PBS pH 7.4 (Catalog No. 10010049, ThermoFisher Scientific, Waltham, MA, USA), trypsinized for 5 minutes at 37° C., and resuspended in fresh growth media without phenol red. An aliquot was diluted 2× with Trypan Blue solution 0.4% (Catalog No. 15250061, ThermoFisher Scientific, Waltham, MA, USA) and cell count determined. Cell concentration was adjusted with growth media without phenol red to 5.0×10^5 cells/mL.\nCompound 1 was prepared by dissolving neat compounds in DMSO (Catalog No. D8418, Sigma-Aldrich, Inc., St. Louis, MO, USA) to generate 10 mM stock solution and stored at −20° C. The 10 mM DMSO stock solution of Compound 1 was serially diluted (half log) in DMSO to generate 11-point dose series (10000, 3165, 1000, 316, 100, 31.6, 10, 3.2, 1, 0.32, 0.1 μM) in an acoustic ready 384-well low dead volume microplate (Catalog No. LP-0200, Beckman Coulter Life Sciences, Indianapolis, IN, USA). Using an Echo 550 Acoustic Liquid Handler (Beckman Coulter Life Sciences, Indianapolis, IN, USA), 30 nL of serially diluted compound solutions were dispensed in duplicate to each 384-well TC-treated microplate (Catalog No. 3571, Corning, Glendale, CA, USA). 30 nL DMSO was transferred to all control wells.\n30 μL of 293T.92 cells suspended in growth media without phenol red at 5.0×10^5 cells/mL (15000 cells/well) were dispensed using a Multidrop Combi Reagent Dispenser (Catalog No. 5840300, ThermoFisher Scientific, Waltham, MA, USA) to each well of columns 1-23 of 384-well TC-treated microplates containing duplicate concentration range of test compounds and DMSO controls. 30 μL of media was dispensed to column 24 as background positive control (P). Plates were spun briefly at 1000 rpm and cells were incubated at 37° C., 5% CO2 for 24 hours. Final concentration of DMSO was 0.1% for all samples.\nCellular BRD4 protein level was determined based on quantification of HiBiT using Nano-Glo® HiBiT Lytic Assay System (Promega). 30 μL Nano-Glo Lytic Assay reagents were added to each well and luminescence was acquired on EnVision® Multilabel Reader (Catalog No. 2104-0010, Perkin Elmer Inc., Dumfries, VA, USA). Cells treated in the absence of the test compound (0.1% DMSO vehicle) were the negative control (N) and wells containing only media were the positive control (P).\nPercent response of compound-treated samples (T) were calculated by normalizing to the DMSO treated negative (N) controls on the same microtiter plate after background (i.e., positive control) signal subtraction:\nCurve fit and DC50 (concentration that degrades 50% BRD4) determination was performed by 4 parametric logistic fit analysis using software such as GraphPad Prism software (GraphPad Software, LLC, San Diego, CA, USA). […]",
  "note": "Like-named read-outs stand apart in the source and are kept apart here.",
  "data": [
    {"molecule": "COc1cc(-c2cn(C)c(=O)c(C)c2C)cc(OC)c1CN1CC[C@H](N2CCN(c3ccc(N[C@H]4CCC(=O)NC4=O)cc3F)CC2)C(F)(F)C1", "note": "[Compound 1, (S)-3-((4-(4-((S)-1-(2,6-dimethoxy-4-(1,4,5-trimethyl-6-oxo-1,6-dihydropyridin-3-yl)benzyl)-3,3-difluoropiperidin-4-yl)piperazin-1-yl)-3-fluorophenyl)amino)-piperidine-2,6-dione]", "values": [
      {"measurement": "% BRD4 Remaining Relative to Vehicle Control at 24 hr, Mean", "setting": "0.101 nM", "value": 96.1, "unit": "%"},
      {"measurement": "% BRD4 Remaining Relative to Vehicle Control at 24 hr, Mean", "setting": "0.318 nM", "value": 96.3, "unit": "%"},
      {"measurement": "% BRD4 Remaining Relative to Vehicle Control at 24 hr, Mean", "setting": "1.01 nM", "value": 96.3, "unit": "%"},
      {"measurement": "% BRD4 Remaining Relative to Vehicle Control at 24 hr, Mean", "setting": "3.17 nM", "value": 96.1, "unit": "%"},
      {"measurement": "% BRD4 Remaining Relative to Vehicle Control at 24 hr, Mean", "setting": "10.0 nM", "value": 96.0, "unit": "%"},
      {"measurement": "% BRD4 Remaining Relative to Vehicle Control at 24 hr, Mean", "setting": "31.7 nM", "value": 96.4, "unit": "%"},
      {"measurement": "% BRD4 Remaining Relative to Vehicle Control at 24 hr, Mean", "setting": "100 nM", "value": 95.8, "unit": "%"},
      {"measurement": "% BRD4 Remaining Relative to Vehicle Control at 24 hr, Mean", "setting": "317 nM", "value": 92.5, "unit": "%"},
      {"measurement": "% BRD4 Remaining Relative to Vehicle Control at 24 hr, Mean", "setting": "1000 nM", "value": 89.2, "unit": "%"},
      {"measurement": "% BRD4 Remaining Relative to Vehicle Control at 24 hr, Mean", "setting": "3161 nM", "value": 84.4, "unit": "%"},
      {"measurement": "% BRD4 Remaining Relative to Vehicle Control at 24 hr, Mean", "setting": "9990 nM", "value": 78.1, "unit": "%"},
      {"measurement": "DC50", "setting": "BRD4-HiBiT, 293T.92 cells, 24 hours, read-out: Mean DC50", "value": "> 10", "unit": "µM"},
      {"measurement": "Emax", "setting": "BRD4-HiBiT, 293T.92 cells, 24 hours, read-out: Mean Emax (%) ± SD", "value": "78.1 ± 3.41", "unit": "%"},
      {"measurement": "effect on the degradation of BRD4", "setting": "concentrations up to 10 μM, 24 hours", "value": "no significant effect"},
      {"measurement": "DC50", "setting": "summary statement, read-out: DC50 against BRD4", "value": "> 1", "unit": "µM"}
    ]}
  ]
}
